Data reported in patent publication US12655116B2, “Substituted isophthalic acid diamides” (Bayer Aktiengesellschaft, priority 2020, dated 2026).

How the values were obtained:
MATIN [1] = experiment: Pre-emergence herbicidal action against MATIN; type: in vivo, Matricaria inodora
Procedure, shortened: (§1)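 Herbicidal effect was assessed 3 weeks after treatment by visual comparison with untreated controls, 100% denoting dead plants. Aqueous WP or EC preparations had been applied at 600 to 800 l/ha with 0.2% wetting agent to the soil covering freshly sown seeds.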

SETVI [2] = experiment: Post-emergence herbicidal action against SETVI; type: in vivo, Setaria viridis; settings: dosage 20 g/ha
Procedure, shortened: (§2)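 Herbicidal effect was scored visually in percent after about 3 weeks in the greenhouse. Plants had been raised in sandy loam and treated post-emergence at the one-leaf stage with formulated compound at 600 to 800 l/ha water plus 0.2% wetting agent.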

ECHCG [3] = experiment: Pre-emergence herbicidal action against ECHCG; type: in vivo, Echinochloa crus-galli
Procedure, shortened: as §1

ABUTH [4] = experiment: Pre-emergence herbicidal action against ABUTH; type: in vivo, Abutilon theophrasti
Procedure, shortened: as §1

AMARE [5] = experiment: Post-emergence herbicidal action against AMARE; type: in vivo, Amaranthus retroflexus; settings: 20 g/ha, visual assessment about 3 weeks after treatment, 100% = plants have died, 0% = like control plants
Procedure, shortened: as §2

ABUTH [6] = experiment: Post-emergence herbicidal action against ABUTH; type: in vivo, Abutilon theophrasti; settings: visual assessment about 3 weeks after treatment vs untreated controls
Procedure, shortened: as §2

VIOTR [7] = experiment: Pre-emergence herbicidal action against VIOTR; type: in vivo, Viola tricolor
Procedure, shortened: as §1

PHBPU [8] = experiment: Pre-emergence herbicidal action against PHBPU; type: in vivo, Pharbitis purpurea; settings: dosage 80 g/ha
Procedure, shortened: as §1

DIGSA [9] = experiment: Post-emergence herbicidal action against DIGSA; type: in vivo, Digitaria sanguinalis
Procedure, shortened: as §2

DIGSA [10] = experiment: Pre-emergence herbicidal action against DIGSA; type: in vivo, Digitaria sanguinalis
Procedure, shortened: as §1

VERPE [11] = experiment: Pre-emergence herbicidal action against VERPE; type: in vivo, Veronica persica; settings: dosage 80 g/ha
Procedure, shortened: as §1

PHBPU [12] = experiment: Post-emergence herbicidal action against PHBPU; type: in vivo, Pharbitis purpurea
Procedure, shortened: as §2

VIOTR [13] = experiment: Post-emergence herbicidal action against VIOTR; type: in vivo, Viola tricolor; settings: Viola tricolor, 504 h
Procedure, shortened: as §2

POLCO = experiment: Pre-emergence herbicidal action against POLCO; type: in vivo, Polygonum convolvulus
Procedure, shortened: as §1

ECHCG [14] = experiment: Post-emergence herbicidal action against ECHCG; type: in vivo, Echinochloa crus-galli; settings: dosage 20 g/ha
Procedure, shortened: as §2

AMARE [15] = experiment: Pre-emergence herbicidal action against AMARE; type: in vivo, Amaranthus retroflexus
Procedure, shortened: as §1

SETVI [16] = experiment: Pre-emergence herbicidal action against SETVI; type: in vivo, Setaria viridis
Procedure, shortened: as §1

VERPE [17] = experiment: Post-emergence herbicidal action against VERPE; type: in vivo, Veronica persica; settings: 20 g/ha
Procedure, shortened: as §2

MATIN [18] = experiment: Post-emergence herbicidal action against MATIN; type: in vivo, Matricaria inodora
Procedure, shortened: as §2

ALOMY [19] = experiment: Post-emergence herbicidal action against ALOMY; type: in vivo, Alopecurus myosuroides; settings: dosage 20 g/ha, visual assessment about 3 weeks after treatment vs untreated controls
Procedure, shortened: as §2

ALOMY [20] = experiment: Pre-emergence herbicidal action against ALOMY; type: in vivo, Alopecurus myosuroides; settings: 80 g/ha, pre-emergence, scored visually after 3 weeks vs untreated controls (100% = plants have died, 0% = like control plants)
Procedure, shortened: as §1

AVEFA = experiment: Pre-emergence herbicidal action against AVEFA; type: in vivo, Avena fatua; settings: 80 g/ha, pre-emergence
Procedure, shortened: as §1

[21] = Tripleurospermum inodorum, 504 h, dosage 20 g/ha
[22] = 80 g/ha, scored visually after 3 weeks vs untreated controls (100% = plants have died, 0% = like control plants)
[23] = 20 g/ha, scored visually after 3 weeks vs untreated controls, 100% = plants have died, 0% = like control plants

CCNC(=O)c1c(C(F)F)ccc(C(=O)Nc2nnnn2C)c1C1CC1 [Example 1-305]
pest or weed control at 20 g/ha (MATIN [1]; [21]): 100% | pest or weed control at 80 g/ha (MATIN [1]; Tripleurospermum inodorum, 504 h, dosage 80 g/ha): 100% | pest or weed control at 20 g/ha (SETVI [2]; Setaria viridis, 504 h): 90% | pest or weed control at 20 g/ha (ECHCG [3]; Echinochloa crus-galli, 504 h, 20 g/ha): 80% | pest or weed control at 80 g/ha (ECHCG [3]; Echinochloa crus-galli, 504 h, 80 g/ha): 100% | pest or weed control at 80 g/ha (ABUTH [4]; Abutilon theophrasti, 504 h, 80 g/ha, scored visually after 3 weeks vs untreated controls (100% = plants have died, 0% = like control plants)): 100% | pest or weed control at 20 g/ha (ABUTH [4]; Abutilon theophrasti, 504 h, dosage 20 g/ha, scored visually after 3 weeks vs untreated controls, 100% = plants have died, 0% = like control plants, read-out: Pre-emergence action against ABUTH (herbicidal activity in percent)): 100% | pest or weed control at 20 g/ha (AMARE [5]; Amaranthus retroflexus, 504 h): 90% | pest or weed control at 5 g/ha (ABUTH [6]; Abutilon theophrasti, 504 h, dosage 5 g/ha): 90% | pest or weed control at 20 g/ha (ABUTH [6]; Abutilon theophrasti, 504 h, dosage 20 g/ha): 90% | pest or weed control at 20 g/ha (VIOTR [7]; Viola tricolor, 504 h, dosage 20 g/ha): 100% | pest or weed control at 80 g/ha (VIOTR [7]; Viola tricolor, 504 h, dosage 80 g/ha): 100% | pest or weed control at 80 g/ha (PHBPU [8]; Ipomoea purpurea, 504 h): 90% | pest or weed control at 20 g/ha (DIGSA [9]; Digitaria sanguinalis, 504 h, 20 g/ha): 80% | pest or weed control at 20 g/ha (DIGSA [10]; Digitaria sanguinalis, 504 h, dosage 20 g/ha): 100% | pest or weed control at 80 g/ha (DIGSA [10]; Digitaria sanguinalis, 504 h, dosage 80 g/ha): 100% | pest or weed control at 80 g/ha (VERPE [11]; Veronica persica, 504 h): 100% | pest or weed control at 20 g/ha (PHBPU [12]; Ipomoea purpurea, 504 h, dosage 20 g/ha): 90% | pest or weed control at 5 g/ha (VIOTR [13]; 5 g/ha): 90% | pest or weed control at 20 g/ha (VIOTR [13]; 20 g/ha): 90% | pest or weed control at 80 g/ha (POLCO; Fallopia convolvulus, 504 h, dosage 80 g/ha): 80% | pest or weed control at 20 g/ha (ECHCG [14]; Echinochloa crus-galli, 504 h): 90% | pest or weed control at 20 g/ha (AMARE [15]; Amaranthus retroflexus, 504 h, 20 g/ha, scored visually after 3 weeks vs untreated controls, 100% = plants have died, 0% = like control plants): 100% | pest or weed control at 80 g/ha (AMARE [15]; Amaranthus retroflexus, 504 h, 80 g/ha, scored visually after 3 weeks vs untreated controls, 100% = plants have died, 0% = like control plants): 100% | pest or weed control at 20 g/ha (SETVI [16]; Setaria viridis, 504 h, dosage 20 g/ha): 80% | pest or weed control at 80 g/ha (SETVI [16]; Setaria viridis, 504 h, dosage 80 g/ha): 100% | pest or weed control at 20 g/ha (VERPE [17]; Veronica persica, 504 h): 80% | pest or weed control at 5 g/ha (MATIN [18]; Tripleurospermum inodorum, 504 h, dosage 5 g/ha): 90% | pest or weed control at 20 g/ha (MATIN [18]; [21]): 90%

CCn1nnnc1NC(=O)c1ccc(C(F)F)c(C(=O)NCC(F)F)c1C [Example 2-49]
Pre-emergence action against MATIN in % (MATIN [1]; dosage 20 g/ha): 100% | Pre-emergence action against MATIN in % (MATIN [1]; dosage 80 g/ha): 100% | Post-emergence action against SETVI in % (SETVI [2]): 90% | Pre-emergence action against ECHCG in % (ECHCG [3]; 80 g/ha): 90% | Pre-emergence action against ABUTH (herbicidal activity) (ABUTH [4]; [22]): 100% | Pre-emergence action against ABUTH (herbicidal activity in percent) (ABUTH [4]; dosage 20 g/ha, scored visually after 3 weeks vs untreated controls, 100% = plants have died, 0% = like control plants): 100% | Post-emergence action at 20 g/ha against AMARE in % (AMARE [5]): 100% | Post-emergence action against ALOMY in % (ALOMY [19]): 80% | Post-emergence action against ABUTH in % (ABUTH [6]; dosage 5 g/ha): 90% | Post-emergence action against ABUTH in % (ABUTH [6]; dosage 20 g/ha): 90% | Pre-emergence action against VIOTR in % (VIOTR [7]; dosage 20 g/ha): 90% | Pre-emergence action against VIOTR in % (VIOTR [7]; dosage 80 g/ha): 100% | Pre-emergence action against PHBPU in % (PHBPU [8]): 80% | Post-emergence action against DIGSA in % (DIGSA [9]; 5 g/ha): 90% | Post-emergence action against DIGSA (DIGSA [9]; 20 g/ha): 90% | Pre-emergence action against DIGSA in % (DIGSA [10]; dosage 20 g/ha): 100% | Pre-emergence action against DIGSA in % (DIGSA [10]; dosage 80 g/ha): 100% | Pre-emergence action against ALOMY (herbicidal activity) (ALOMY [20]): 90% | Pre-emergence action against VERPE in % (VERPE [11]): 100% | Post-emergence action against PHBPU in % (PHBPU [12]; dosage 5 g/ha): 80% | Post-emergence action against PHBPU in % (PHBPU [12]; dosage 20 g/ha): 90% | Pre-emergence action against POLCO in % (POLCO; dosage 80 g/ha): 90% | Post-emergence action against ECHCG in % (ECHCG [14]): 90% | Pre-emergence action against AMARE in % (AMARE [15]; [23]): 100% | Pre-emergence action against AMARE in % (AMARE [15]; [22]): 100% | Pre-emergence action against SETVI in % (SETVI [16]; dosage 80 g/ha): 100% | Post-emergence action against MATIN in % (MATIN [18]; dosage 5 g/ha): 80% | Post-emergence action against MATIN in % (MATIN [18]; dosage 20 g/ha): 80% | Pre-emergence action against AVEFA in % (AVEFA): 80%

CCn1nnnc1NC(=O)c1ccc(C(F)(F)F)c(C(=O)NC2CCC2)c1Cl [Example 2-146]
Pre-emergence action against MATIN in % (MATIN [1]; dosage 20 g/ha): 100% | Pre-emergence action against MATIN in % (MATIN [1]; dosage 80 g/ha): 100% | Pre-emergence action against ABUTH (herbicidal activity) (ABUTH [4]; [22]): 90% | Post-emergence action at 20 g/ha against AMARE in % (AMARE [5]): 80% | Post-emergence action against ABUTH in % (ABUTH [6]; dosage 20 g/ha): 80% | Pre-emergence action against VIOTR in % (VIOTR [7]; dosage 20 g/ha): 100% | Pre-emergence action against VIOTR in % (VIOTR [7]; dosage 80 g/ha): 100% | Pre-emergence action against PHBPU in % (PHBPU [8]): 90% | Pre-emergence action against DIGSA in % (DIGSA [10]; dosage 80 g/ha): 100% | Pre-emergence action against ALOMY (herbicidal activity) (ALOMY [20]): 80% | Pre-emergence action against VERPE in % (VERPE [11]): 80% | Post-emergence action against PHBPU in % (PHBPU [12]; dosage 5 g/ha): 80% | Post-emergence action against PHBPU in % (PHBPU [12]; dosage 20 g/ha): 90% | Pre-emergence action against POLCO in % (POLCO; dosage 20 g/ha): 80% | Pre-emergence action against POLCO in % (POLCO; dosage 80 g/ha): 80% | Pre-emergence action against AMARE in % (AMARE [15]; [23]): 100% | Pre-emergence action against AMARE in % (AMARE [15]; [22]): 100% | Pre-emergence action against SETVI in % (SETVI [16]; dosage 80 g/ha): 100% | Post-emergence action against VERPE in % (VERPE [17]): 80% | Post-emergence action against MATIN in % (MATIN [18]; dosage 5 g/ha): 80% | Post-emergence action against MATIN in % (MATIN [18]; dosage 20 g/ha): 90%
